Activity and Ki data for one compound are collected here from ChEMBL document CHEMBL5113450, “Discovery of potent dual ligands for dopamine D4 and σ1 receptors” (Bioorg Med Chem, 2022).

Assay [1] has as its target D(1A) dopamine receptor (Homo sapiens) (UniProt P21728). The experiment in a line: Displacement of [3H]SCH 23390 from recombinant human D1 receptor at 3 uM measured after 60 mins by scintillation counting analysis.
A further assay addresses D(2) dopamine receptor (Homo sapiens, UniProt P14416). Nature of the assay: Displacement of [3H]methyl-spiperone from recombinant human D2S receptor measured after 60 mins by scintillation counting analysis. For orientation: Displacement assays read how much labelled ligand stays bound in the presence of the test substance.
Assay [2] addresses Voltage-gated inwardly rectifying potassium channel KCNH2 (Homo sapiens, UniProt Q12809). The experiment in a line: Displacement of [3H]dofetilide from recombinant human ERG stably expressed in HEK293 cell membranes measured after 60 mins by scintillation counting analysis. Type of assay: toxicity, Membrane.
Another assay deals with D(3) dopamine receptor (Homo sapiens, UniProt P35462). Nature of the assay: Displacement of [3H]methyl-spiperone from recombinant human D3 receptor measured after 60 mins by scintillation counting analysis.
Chain of D(3) dopamine receptor (P35462 whole entry): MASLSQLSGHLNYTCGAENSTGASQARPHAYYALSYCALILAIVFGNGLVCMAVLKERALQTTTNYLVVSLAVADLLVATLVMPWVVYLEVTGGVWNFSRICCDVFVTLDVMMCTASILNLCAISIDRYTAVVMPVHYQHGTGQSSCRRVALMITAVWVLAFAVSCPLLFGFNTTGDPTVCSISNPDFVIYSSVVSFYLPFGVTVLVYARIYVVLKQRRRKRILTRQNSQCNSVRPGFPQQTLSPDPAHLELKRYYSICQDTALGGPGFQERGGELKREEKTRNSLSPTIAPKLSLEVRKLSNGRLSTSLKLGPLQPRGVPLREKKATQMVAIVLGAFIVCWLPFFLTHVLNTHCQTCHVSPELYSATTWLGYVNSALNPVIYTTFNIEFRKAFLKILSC
For assay [3], the target named is Sigma intracellular receptor 2 (Homo sapiens) (UniProt Q5BJF2). Nature of the assay: Displacement of [3H]-DTG/(+) pentazocine from human sigma2 receptor at 3 uM measured after 60 mins by scintillation counting analysis.
Chain of Sigma intracellular receptor 2 (Homo sapiens) (Q5BJF2 whole entry): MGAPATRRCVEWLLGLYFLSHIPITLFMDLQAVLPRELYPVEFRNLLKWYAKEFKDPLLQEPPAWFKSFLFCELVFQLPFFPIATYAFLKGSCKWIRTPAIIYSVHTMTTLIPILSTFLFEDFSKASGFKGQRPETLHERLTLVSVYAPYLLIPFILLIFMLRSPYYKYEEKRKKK

The source made the active and inactive calls. The calls are words filed in the database; no cut-off is given here.

Chain of Voltage-gated inwardly rectifying potassium channel KCNH2 (Q12809 whole entry): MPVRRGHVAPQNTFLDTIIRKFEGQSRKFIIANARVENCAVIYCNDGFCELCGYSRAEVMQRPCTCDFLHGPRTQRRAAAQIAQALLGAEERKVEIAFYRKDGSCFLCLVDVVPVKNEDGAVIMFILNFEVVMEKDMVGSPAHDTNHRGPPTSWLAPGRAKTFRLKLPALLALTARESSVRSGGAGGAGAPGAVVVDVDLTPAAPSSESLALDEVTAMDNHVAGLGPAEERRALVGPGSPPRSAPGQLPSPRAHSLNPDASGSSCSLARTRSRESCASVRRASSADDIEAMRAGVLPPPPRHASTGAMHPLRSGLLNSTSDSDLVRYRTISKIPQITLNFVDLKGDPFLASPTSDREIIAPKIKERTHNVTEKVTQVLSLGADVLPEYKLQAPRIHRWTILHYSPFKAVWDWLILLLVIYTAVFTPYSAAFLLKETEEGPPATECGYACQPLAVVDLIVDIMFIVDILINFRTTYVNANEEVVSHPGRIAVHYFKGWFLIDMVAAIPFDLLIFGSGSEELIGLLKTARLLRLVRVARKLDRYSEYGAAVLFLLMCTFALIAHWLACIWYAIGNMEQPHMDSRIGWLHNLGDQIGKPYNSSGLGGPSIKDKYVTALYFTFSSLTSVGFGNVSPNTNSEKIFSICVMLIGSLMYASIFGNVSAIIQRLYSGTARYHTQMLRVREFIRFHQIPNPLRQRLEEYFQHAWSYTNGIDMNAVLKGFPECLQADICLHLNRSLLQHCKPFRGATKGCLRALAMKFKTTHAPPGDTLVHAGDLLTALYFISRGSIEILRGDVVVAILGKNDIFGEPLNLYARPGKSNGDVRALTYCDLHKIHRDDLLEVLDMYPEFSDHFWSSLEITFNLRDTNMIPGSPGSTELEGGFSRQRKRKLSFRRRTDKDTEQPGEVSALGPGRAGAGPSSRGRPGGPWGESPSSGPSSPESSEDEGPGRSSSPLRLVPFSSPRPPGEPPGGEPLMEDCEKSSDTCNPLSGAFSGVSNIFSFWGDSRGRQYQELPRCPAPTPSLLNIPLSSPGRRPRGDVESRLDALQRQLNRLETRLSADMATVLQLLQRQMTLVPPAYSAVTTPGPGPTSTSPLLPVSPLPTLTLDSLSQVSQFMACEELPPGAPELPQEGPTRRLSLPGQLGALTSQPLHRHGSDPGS
Chain of D(1A) dopamine receptor (Homo sapiens) (P21728 whole entry): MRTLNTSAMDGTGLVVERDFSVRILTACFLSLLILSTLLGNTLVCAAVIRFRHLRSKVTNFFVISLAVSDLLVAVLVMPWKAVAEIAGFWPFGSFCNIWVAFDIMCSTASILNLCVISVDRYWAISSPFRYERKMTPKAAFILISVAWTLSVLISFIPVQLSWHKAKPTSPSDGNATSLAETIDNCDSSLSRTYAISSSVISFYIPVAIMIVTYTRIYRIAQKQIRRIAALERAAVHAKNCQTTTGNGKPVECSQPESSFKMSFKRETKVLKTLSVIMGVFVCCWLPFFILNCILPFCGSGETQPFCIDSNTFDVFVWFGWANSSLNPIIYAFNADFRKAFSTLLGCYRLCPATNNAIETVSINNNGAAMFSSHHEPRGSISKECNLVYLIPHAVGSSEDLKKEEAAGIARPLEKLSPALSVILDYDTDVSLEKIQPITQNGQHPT
Chain of D(2) dopamine receptor (P14416 whole entry): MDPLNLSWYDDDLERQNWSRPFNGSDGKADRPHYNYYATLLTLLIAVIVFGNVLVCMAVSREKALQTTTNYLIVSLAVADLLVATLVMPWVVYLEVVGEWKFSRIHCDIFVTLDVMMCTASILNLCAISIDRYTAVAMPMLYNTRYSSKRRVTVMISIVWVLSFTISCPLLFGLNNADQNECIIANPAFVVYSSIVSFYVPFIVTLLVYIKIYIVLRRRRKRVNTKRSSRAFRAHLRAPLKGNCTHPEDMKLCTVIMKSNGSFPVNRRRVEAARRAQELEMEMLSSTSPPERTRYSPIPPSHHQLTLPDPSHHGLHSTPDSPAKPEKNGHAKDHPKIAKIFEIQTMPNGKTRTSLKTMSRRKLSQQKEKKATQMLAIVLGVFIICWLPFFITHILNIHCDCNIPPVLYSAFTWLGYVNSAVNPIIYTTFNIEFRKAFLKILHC

The Ki is a dissociation constant, usually derived from enzyme kinetics or from competition with a known ligand. With `c1ccc(Cc2cn(C3CCN(Cc4ccccc4)CC3)nn2)cc1`, the result in assay [1] and in assay [3] was Active. The Ki is 6.3 µM on D(2) dopamine receptor, 4.6 µM in assay [2] and over 10 µM at D(3) dopamine receptor.
